According to patent US4863949A, “Aminopropanol derivatives, processes for the preparation thereof, the use thereof and pharmaceutical compositions containing them” (Boehringer Mannheim GmbH, priority 1985, dated 1989):
Where a name gives a salt, the structure may show the parent alone.

Tested on: livers
Assay: denitration rate in perfused rat livers relative to isosorbide-5-mononitrate (nitrate-like action)
Design: species or system rats
Settings: rat livers perfused 4 min, equimolar 5×10^-5 M/l; freed NO2 in perfusate; high = fast denitration

O=C(CCCO[N+](=O)[O-])NCCNCC(O)COc1cccc2[nH]ccc12 (stereo not shown) [2 (11.), 1-indol-4-yloxy)-3-[2-(4-nitroxybutanoylamino)-ethylamino]-propan-2-ol hemifumarate]
Vrel (denitration rate in relation to isosorbide-5-mononitrate): 0,95

O=C(CCCO[N+](=O)[O-])NCCNCC(O)COc1cccc2c1CC(=O)N2.O=C(O)/C=C/C(=O)O (stereo not shown) [2 (17.), 3-[2-(4-nitroxybutanoylamino)-ethylamino]-1-(2-oxoindolin-4-yloxy)-propan-2-ol fumarate]
Vrel (denitration rate in relation to isosorbide-5-mononitrate): 0,75

CC(CCC(=O)NCCNCC(O)COc1cccc2c1CC(=O)N2)O[N+](=O)[O-] (stereo not shown) [2 (29.), 3-[2-(4-nitroxypentanoylamino)-ethylamino]-1-(2-oxoindolin-4-yloxy)-propan-2-ol cyclamate]
Vrel (denitration rate in relation to isosorbide-5-mononitrate): 0,86

O=C(CCCCO[N+](=O)[O-])NCCNCC(O)COc1cccc2c1CC(=O)N2 (stereo not shown) [2 (31.), 3-[2-(5-nitroxypentanoylamino)-ethylamino]-1-(2-oxoindolin-4-yloxy)-propan-2-ol hemifumarate]
Vrel (denitration rate in relation to isosorbide-5-mononitrate): 0,66

Cc1ccc(Cl)c(OCC(O)CNC(C)(C)CNC(=O)CCCO[N+](=O)[O-])c1 (stereo not shown) [2 (46.), 1-(2-chloro-5-methylphenoxy)-3-[1,1-dimethyl-2-(4-nitroxybutanoylamino)-ethylamino]-propan-2-ol cyclamate]
Vrel (denitration rate in relation to isosorbide-5-mononitrate): 0,97

CC(C)(CNC(=O)CCCO[N+](=O)[O-])NCC(O)COc1ccccc1C#N.O=C(O)/C=C/C(=O)O (stereo not shown) [2 (48.), 1-(2-cyanophenoxy)-3-[1,1-dimethyl-2-(4-nitroxybutanoylamino)-ethylamino]-propan-2-ol fumarate]
Vrel (denitration rate in relation to isosorbide-5-mononitrate): 0,94

C=CCc1ccccc1OCC(O)CNC(C)(C)CNC(=O)CCCO[N+](=O)[O-] (stereo not shown) [2 (72.), 1-(2-allylphenoxy)-3-[1,1-dimethyl-2-(4-nitroxybutanoylamino)-ethylamino]-propan-2-ol cyclamate]
Vrel (denitration rate in relation to isosorbide-5-mononitrate): 0,54

CC(=O)Oc1c(C)cc(OCC(O)CNC(C)(C)CNC(=O)CCCO[N+](=O)[O-])c(C)c1C.O=C(O)/C=C/C(=O)O (stereo not shown) [8 (15.), 3-[1,1-dimethyl-2-(4-nitroxybutanoylamino)-ethylamino]-1-(4-methylcarbonyloxy-2,3,5-trimethylphenoxy)-propan-2-ol fumarate]
Vrel (denitration rate in relation to isosorbide-5-mononitrate): 1,19

Cn1cnc2cccc(OCC(O)CNC(C)(C)CNC(=O)O[C@H]3CO[C@H]4[C@@H]3OC[C@H]4O[N+](=O)[O-])c21 (stereo partly shown) [Example 11, 3-[1,1-Dimethyl-2-[(5-O-nitroisosorbid-2-yloxy)-carbonylamino]-ethylamino]-1-(3-methylbenzimidazol-4-yloxy)-propan-2-ol fumarate]
Vrel (denitration rate in relation to isosorbide-5-mononitrate): 1,23

O=[N+]([O-])O[C@@H]1CO[C@H]2[C@@H]1OC[C@@H]2O [Isosorbide-5-mononitrate, isosorbide-5-mononitrate, reference compound]
Vrel (denitration rate in relation to isosorbide-5-mononitrate): 0,86
